Entries after “also recorded” stand apart in the source; their conditions may differ.
Columns and labels:
[1] = target: T1, DNA-PK (Homo sapiens, UniProt P78527); assay: ActivX KiNativ assay (probe binding, LC-MS); conditions: 0.3 μM and 1.0 μM dose, 1 h, four different cell lines
T1 construct: lysates were prepared from cell pellets and incubated with ADP and ATP probes; endogenous in cells
Procedure: (§1) After 1 h, the medium was aspirated; cells were rinsed once with ice cold PBS, scraped off and transferred to a 15 ml conical tube. Cells were pelleted by centrifugation, the supernatant was discarded and pellets were frozen on dry ice and stored at −80° C. KiNativ assay: Briefly, lysates were prepared from cell pellets and incubated with ADP and ATP probes. After a tryptic digest, the probe labeled peptides were characterized and quantified using targeted Liquid Chromatography-Mass Spectrometry (LC-MS). Percent inhibition is defined as the reduction of probe binding in the presence of compound, indicating binding of the compound to the kinase.

[2] = target: T2, SMG1 (Homo sapiens, UniProt Q96Q15); assay: ActivX KiNativ assay (probe binding, LC-MS); conditions: 0.3 μM and 1.0 μM dose, 1 h, four different cell lines
T2 construct: endogenous in cells; host or cells: HCT-116 parental and HCT-116 DNA-PK-/- cells
Procedure: as §1

[3] = target: T3, TORK (Homo sapiens, UniProt P42345); assay: Western blot for markers of TORK inhibition (pS6 and p4EBP1) in HCT-116 cells; format: cell-based; conditions: parental and DNAPK−/− HCT116 cells
[4] = target: T2, SMG1; assay: Western blot for marker of SMG1 inhibition (pATM/ATR substrate band colocalizing with UPF1) in HCT-116 cells; format: cell-based; conditions: parental and DNAPK−/− HCT116 cells
Text: SDS-PAGE and Western blot: Equal amounts of protein were subjected to SDS-PAGE using 3-8% tris-acetate protein gels (Thermo Fisher Scientific #A03755BOX, for DNA-PK, SMG1 and vinculin detection) and 4-12% bis-tris protein gels (Thermo Fisher Scientific #NP0323BOX, for phospho-(Ser/Thr) ATM/ATR substrate, UPF1, GAPDH, S6, phospho-4E-BP1, and cofilin detection). Proteins were electrophoretically transferred to 0.2 μm nitrocellulose membranes (Thermo Fisher Scientific #LC2000) and blocked for 1 hour with Odyssey Blocking Buffer TBS (LI-COR #927-50000). Membranes from 3-8% tris-acetate gels were incubated overnight with antibodies against total DNA-PK (Cell Signaling #12311), phospho DNA-PK (Ser2056) (Abcam #ab124918), total SMG1 (Cell Signaling #9149) and vinculin (Sigma #V9264). Membranes from 4-12% bis-tris gels were incubated overnight with antibodies against phospho-(Ser/Thr) ATM/ATR substrate (Cell Signaling #2851), total UPF1 (Sigma #SAB 1402893), GAPDH (Santa Cruz #47724), total S6 Ribosomal Protein (Santa Cruz #74459), phosphoS6 Ribosomal Protein (Ser240/244) (Cell Signaling #5364), phospho-4E-BP1 (Thr70) (Cell Signaling #9455), and cofilin (Santa Cruz #376476). Membranes were washed with TBST and incubated with IRDye 800CW Goat anti-Rabbit IgG (LI-COR #926-32211) and IRDye 680LT Goat anti-Mouse IgG (LI-COR #926-68020) secondary antibodies for 1 hour. […]

[5] = target: T3, TORK; assay: ActivX KiNativ assay (probe binding, LC-MS); set-up: lysates were prepared from cell pellets and incubated with ADP and ATP probes; endogenous in cells; conditions: 0.3 μM and 1.0 μM dose, 1 h, four different cell lines

T2 sequence (Q96Q15 whole entry): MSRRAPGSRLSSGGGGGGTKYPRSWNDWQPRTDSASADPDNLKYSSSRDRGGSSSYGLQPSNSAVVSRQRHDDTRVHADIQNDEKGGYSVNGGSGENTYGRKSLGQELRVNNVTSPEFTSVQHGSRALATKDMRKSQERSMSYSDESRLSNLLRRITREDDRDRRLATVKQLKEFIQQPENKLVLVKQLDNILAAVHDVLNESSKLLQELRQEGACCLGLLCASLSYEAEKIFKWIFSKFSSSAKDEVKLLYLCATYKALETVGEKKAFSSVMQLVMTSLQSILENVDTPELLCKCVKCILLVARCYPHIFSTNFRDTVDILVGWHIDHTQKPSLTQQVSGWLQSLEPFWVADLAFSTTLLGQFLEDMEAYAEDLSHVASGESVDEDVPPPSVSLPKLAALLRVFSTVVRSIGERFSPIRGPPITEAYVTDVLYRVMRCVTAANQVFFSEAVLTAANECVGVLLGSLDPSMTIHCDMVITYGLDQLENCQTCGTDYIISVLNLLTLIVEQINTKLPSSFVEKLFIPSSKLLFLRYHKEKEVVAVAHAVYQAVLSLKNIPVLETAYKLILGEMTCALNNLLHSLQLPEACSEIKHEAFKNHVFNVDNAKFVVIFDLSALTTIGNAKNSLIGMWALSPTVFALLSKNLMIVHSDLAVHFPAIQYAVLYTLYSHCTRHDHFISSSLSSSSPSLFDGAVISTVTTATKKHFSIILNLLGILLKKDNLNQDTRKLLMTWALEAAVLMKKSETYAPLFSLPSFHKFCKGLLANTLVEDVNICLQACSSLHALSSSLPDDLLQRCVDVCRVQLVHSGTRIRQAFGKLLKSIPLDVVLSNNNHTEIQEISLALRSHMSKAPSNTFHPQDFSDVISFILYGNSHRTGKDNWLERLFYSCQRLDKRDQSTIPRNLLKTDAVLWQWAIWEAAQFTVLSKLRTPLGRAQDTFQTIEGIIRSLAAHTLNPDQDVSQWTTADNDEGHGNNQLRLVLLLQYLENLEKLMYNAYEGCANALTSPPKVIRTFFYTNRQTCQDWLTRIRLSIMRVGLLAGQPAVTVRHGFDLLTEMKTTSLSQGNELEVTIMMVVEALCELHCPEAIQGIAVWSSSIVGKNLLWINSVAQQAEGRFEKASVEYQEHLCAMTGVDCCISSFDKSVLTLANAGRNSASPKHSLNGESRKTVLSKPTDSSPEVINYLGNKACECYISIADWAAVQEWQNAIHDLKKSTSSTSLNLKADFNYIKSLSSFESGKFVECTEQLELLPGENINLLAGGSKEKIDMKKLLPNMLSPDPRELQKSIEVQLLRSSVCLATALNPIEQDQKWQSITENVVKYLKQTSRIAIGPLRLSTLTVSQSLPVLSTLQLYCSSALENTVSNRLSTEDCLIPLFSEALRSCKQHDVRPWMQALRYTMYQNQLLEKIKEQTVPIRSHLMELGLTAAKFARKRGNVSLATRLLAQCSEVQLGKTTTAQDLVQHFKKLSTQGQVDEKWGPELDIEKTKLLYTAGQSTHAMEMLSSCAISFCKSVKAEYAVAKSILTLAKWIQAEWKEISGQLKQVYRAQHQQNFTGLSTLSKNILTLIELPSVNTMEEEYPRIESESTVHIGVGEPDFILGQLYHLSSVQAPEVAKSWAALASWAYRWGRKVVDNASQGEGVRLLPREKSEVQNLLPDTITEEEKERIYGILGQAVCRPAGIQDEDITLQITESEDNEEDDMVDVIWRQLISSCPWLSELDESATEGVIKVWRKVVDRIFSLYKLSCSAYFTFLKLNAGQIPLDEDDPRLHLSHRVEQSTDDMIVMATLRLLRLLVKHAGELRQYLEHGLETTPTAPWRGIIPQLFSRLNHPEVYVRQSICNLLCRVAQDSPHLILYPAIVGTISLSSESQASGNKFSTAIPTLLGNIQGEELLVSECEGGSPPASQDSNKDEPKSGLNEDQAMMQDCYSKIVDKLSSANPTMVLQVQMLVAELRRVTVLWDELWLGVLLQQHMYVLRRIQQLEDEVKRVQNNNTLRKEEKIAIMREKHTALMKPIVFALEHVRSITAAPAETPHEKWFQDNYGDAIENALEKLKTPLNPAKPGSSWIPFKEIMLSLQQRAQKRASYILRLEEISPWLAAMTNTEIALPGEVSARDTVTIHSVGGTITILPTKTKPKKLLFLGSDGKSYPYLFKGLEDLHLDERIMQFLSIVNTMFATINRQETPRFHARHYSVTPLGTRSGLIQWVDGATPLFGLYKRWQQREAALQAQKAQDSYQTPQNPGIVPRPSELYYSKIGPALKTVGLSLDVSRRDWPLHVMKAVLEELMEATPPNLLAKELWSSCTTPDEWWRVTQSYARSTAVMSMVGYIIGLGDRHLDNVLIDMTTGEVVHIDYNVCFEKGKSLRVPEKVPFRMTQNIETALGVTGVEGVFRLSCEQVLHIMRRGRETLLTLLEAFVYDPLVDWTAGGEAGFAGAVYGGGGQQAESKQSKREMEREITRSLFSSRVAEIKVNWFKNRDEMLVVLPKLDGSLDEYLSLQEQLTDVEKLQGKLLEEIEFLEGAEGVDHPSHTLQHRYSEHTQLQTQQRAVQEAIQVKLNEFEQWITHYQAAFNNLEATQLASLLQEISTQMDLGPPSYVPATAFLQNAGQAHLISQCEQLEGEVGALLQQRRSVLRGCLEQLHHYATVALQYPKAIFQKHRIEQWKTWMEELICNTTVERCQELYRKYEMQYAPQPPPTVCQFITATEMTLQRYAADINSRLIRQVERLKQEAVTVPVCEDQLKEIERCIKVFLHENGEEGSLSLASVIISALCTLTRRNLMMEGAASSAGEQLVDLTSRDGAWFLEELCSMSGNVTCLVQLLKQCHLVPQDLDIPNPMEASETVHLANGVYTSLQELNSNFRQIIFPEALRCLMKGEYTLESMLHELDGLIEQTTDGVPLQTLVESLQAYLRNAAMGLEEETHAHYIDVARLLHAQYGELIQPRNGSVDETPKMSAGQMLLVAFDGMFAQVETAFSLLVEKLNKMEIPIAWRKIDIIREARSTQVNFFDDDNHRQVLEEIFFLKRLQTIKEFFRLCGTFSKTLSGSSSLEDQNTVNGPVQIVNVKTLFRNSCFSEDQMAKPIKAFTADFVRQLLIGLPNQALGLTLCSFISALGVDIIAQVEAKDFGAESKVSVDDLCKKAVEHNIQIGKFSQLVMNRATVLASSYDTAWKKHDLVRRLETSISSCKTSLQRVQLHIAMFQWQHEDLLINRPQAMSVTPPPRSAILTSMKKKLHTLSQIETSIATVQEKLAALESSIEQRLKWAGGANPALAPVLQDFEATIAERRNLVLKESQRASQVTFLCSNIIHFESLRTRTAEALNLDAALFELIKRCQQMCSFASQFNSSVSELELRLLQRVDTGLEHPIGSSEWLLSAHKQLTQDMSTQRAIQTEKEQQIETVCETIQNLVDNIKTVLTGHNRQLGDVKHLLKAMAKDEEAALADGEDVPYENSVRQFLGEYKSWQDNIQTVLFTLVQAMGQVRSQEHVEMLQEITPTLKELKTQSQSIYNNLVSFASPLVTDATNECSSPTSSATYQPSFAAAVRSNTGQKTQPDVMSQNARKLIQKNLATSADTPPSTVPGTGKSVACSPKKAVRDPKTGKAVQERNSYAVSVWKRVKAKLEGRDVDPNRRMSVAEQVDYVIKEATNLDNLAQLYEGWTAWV

Structure (SMILES): CO[C@H]1CC[C@H](N2C(=O)CNc3ncc(-c4ccc(C(C)(C)O)nc4)nc32)CC1 [Compound 2, 7-(6-(2-hydroxypropan-2-yl)pyridin-3-yl)-1-((trans)-4-methoxycyclohexyl)-3,4-dihydropyrazino[2,3-b]pyrazin-2(1H)-one]
- binding to DNA-PK (% inhibition of probe binding) [1]: only binds TORK
- binding to SMG1 (% inhibition of probe binding) [2]: only binds TORK
- markers of TORK inhibition (pS6 and p4EBP1) [3]: binds to TORK (pS6 and p4EBP1) only; also recorded: reduced
- marker of SMG1 inhibition (pATM/ATR substrate, pUPF1) [4]: binds to TORK (pS6 and p4EBP1) only; also recorded: not by Compound 2
- binding to TORK (% inhibition of probe binding) [5]: only binds TORK
